From PubChem BioAssay (NCI)
Values joined by “and” are separate entries in the source; they are usually repeats but may differ in a detail not shown here. Identical values can stand only once.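 All cell lines were grown in 96-well plates and treated with compound for 48 hours. The concentration for 50% growth inhibition is given as GI50. TGI denotes the concentration required for complete inhibition of growth.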

Tests used:
Test in all cases: inhibition of tumour cell growth, NCI panel, 48 h
K-562 leukemia = system: K-562 leukemia
SN12C renal = system: SN12C renal
A498 renal = system: A498 renal
LOX IMVI melanoma = system: LOX IMVI melanoma
UACC-257 melanoma = system: UACC-257 melanoma
EKVX NSCLC = system: EKVX NSCLC
MOLT-4 leukemia = system: MOLT-4 leukemia
UO-31 renal = system: UO-31 renal
DU-145 prostate = system: DU-145 prostate
SK-MEL-28 melanoma = system: SK-MEL-28 melanoma
OVCAR-4 ovarian = system: OVCAR-4 ovarian

| Structure (SMILES) | TGI (K-562 leukemia) | TGI (SN12C renal) | TGI (A498 renal) | TGI (LOX IMVI melanoma) | TGI (UACC-257 melanoma) | TGI (EKVX NSCLC) | TGI (MOLT-4 leukemia) | TGI (UO-31 renal) | TGI (DU-145 prostate) | TGI (SK-MEL-28 melanoma) | TGI (OVCAR-4 ovarian) | GI50 (SN12C renal) | GI50 (DU-145 prostate) | GI50 (MOLT-4 leukemia) |
| --- | --- | --- | --- | --- | --- | --- | --- | --- | --- | --- | --- | --- | --- | --- |
| OC1CSc2nc3ccccc3n2C1 (configuration not stated) | > 100 µM | > 100 µM | > 100 µM | > 100 µM | > 100 µM | > 100 µM | > 100 µM | > 100 µM | > 100 µM |  |  |  |  |  |
| CCC1NC(N=Nc2ccc([N+](=O)[O-])cc2)(P(=O)(OC(C)C)OC(C)C)OC1=O (configuration not stated) | > 100 µM | > 100 µM | > 100 µM |  | > 100 µM | > 100 µM | > 100 µM | > 100 µM |  | > 100 µM | > 100 µM |  |  |  |
| CCOc1cc2c(c(OCC)c1O)CC[C@@H]1[C@@H]2CC[C@]2(C)[C@@H](O)CC[C@@H]12 | 23.7 µM | 21.9 µM | 41.6 µM | 17.1 µM |  | > 100 µM | > 100 µM | 79.3 µM | 37.4 µM |  | > 100 µM | 4.84 µM | 3.32 µM |  |
| N#CNC(=NCCc1c[nH]c2ccccc12)Oc1ccccc1 | > 100 µM | > 100 µM |  | > 100 µM | > 100 µM | > 100 µM | > 100 µM | > 100 µM |  | > 100 µM | > 100 µM |  |  |  |
| CCN1CN(c2ccccc2)C2(CCN(CC(CC3OCCO3)c3ccc(F)cc3)CC2)C1=O (configuration not stated) | > 87.6 µM | > 89.5 µM | 9.51 µM | 35.1 µM | 13.8 µM | > 100 µM | > 67 µM | > 74.8 µM |  | 40.5 µM | 36.3 µM |  |  |  |
| CC1=CC2c3cccc4[nH]cc(c34)CC2N(C)C1 (configuration not stated) | > 100 µM | > 100 µM | > 100 µM | > 100 µM | > 100 µM | > 100 µM | > 100 µM | > 76.9 µM |  | > 100 µM | > 100 µM |  |  |  |
| COC1=C(C)C(=O)c2c(cc3c(c2O)C(C)(CCC=C(C)C)C(C)O3)C1=O (configuration not stated) | > 100 µM | > 61.8 µM | 35 µM | > 100 µM | > 100 µM | > 100 µM | > 100 µM | > 100 µM |  | > 100 µM | > 100 µM |  |  |  |
| Cc1nc2sccn2c1/C=C1/C(=O)Nc2cccc(Cl)c21 | > 100 µM | > 100 µM | > 100 µM | > 100 µM | > 100 µM | > 100 µM | > 100 µM | > 100 µM | > 100 µM | > 100 µM |  |  |  |  |
| COc1ccc(NC(=S)c2ccoc2C)cc1CC(=O)OC(C)C | > 100 µM | > 100 µM |  | 39.2 µM | > 100 µM | > 100 µM | 80.4 µM | > 100 µM | > 100 µM | > 100 µM | > 100 µM |  |  |  |
| CN1CC2CN(Cc3ccccc3)CCN2c2cccnc21 (configuration not stated) | > 100 µM |  | > 100 µM | 49.4 µM | > 100 µM | > 100 µM | > 100 µM | > 100 µM |  |  | > 100 µM |  |  |  |
| COc1cc(C2c3cc4c(cc3[C@@H](NCCN3CCOCC3)C3COC(=O)[C@H]23)OCO4)cc(OC)c1O (some centres not stated) | > 75 µM | 4.06 µM and 7.9 µM |  | 7.95 µM and 5.02 µM | 32.9 µM and > 17.5 µM | 54.4 µM and > 17.5 µM | 4.48 µM and 4.87 µM | 5.13 µM and 6.38 µM |  | 16.6 µM and > 17.5 µM | 39.3 µM and > 17.5 µM | 0.764 µM and 2.13 µM |  | 0.137 µM and 0.402 µM |
| CN(Cc1cnc2c(N)nc(N)nc2n1)c1ccc(Cl)cc1 | > 100 µM | > 100 µM | 98.5 µM |  | > 100 µM | > 100 µM | > 100 µM | > 100 µM | > 100 µM |  |  |  |  |  |
| CC(C)NC(=O)OCc1c2c(n(C)c1COC(=O)NC(C)C)-c1ccccc1CC2 | > 38.5 µM | 27.4 µM | 61.7 µM | 16.9 µM | 29.7 µM | 33.6 µM | 8.95 µM | 32.4 µM |  | 26.2 µM | 34.5 µM |  |  |  |
| COc1ccccc1C1c2cc3c(cc2OC(N2CCOCC2)C1C)OCO3 (configuration not stated) | 24 µM | 38.1 µM |  | 35.2 µM | 36.9 µM | 89.6 µM | 48.7 µM | 42.8 µM | 51.4 µM | 32.6 µM |  |  |  |  |
| COc1cccc(/C=C2\S/C(=N/Nc3nc(-c4ccc([N+](=O)[O-])cc4)cs3)NC2=O)c1O |  | 50.5 µM | 50.9 µM | 17.1 µM | 71.2 µM | 43 µM | > 100 µM | 28.9 µM | 68.1 µM | 39.5 µM |  |  |  |  |
| O=C(O)C1CCCCN1c1ccccc1[N+](=O)[O-] (configuration not stated) | > 100 µM | > 100 µM |  | > 100 µM | > 100 µM | > 100 µM | > 100 µM | > 100 µM |  |  | > 100 µM |  |  |  |
| COc1cc2c(c(OC)c1OC)-c1ccc(SC)cc1C(O)CC2 (configuration not stated) | < 0.01 µM | 23.6 µM | > 100 µM and 0.0742 µg/mL | 74.1 µM | 32.8 µg/mL | > 100 µM |  |  | > 100 µM | > 100 µM | > 100 µM |  |  |  |
| Cn1c(N)nc(-c2ccc(Cl)cc2)c1SSc1c(-c2ccc(Cl)cc2)nc(N)n1C | 6.2 µM |  | 27.8 µM |  | 3.52 µM | 6.47 µM | > 100 µM | 3.24 µM | 25.4 µM | 3.76 µM | 3.21 µM |  |  |  |
| CC(=O)CC1=C(OC(C)C)C2(OCCO2)C1O (configuration not stated) |  | > 100 µM | > 100 µM | > 100 µM | > 100 µM | > 100 µM | > 100 µM | > 100 µM | > 100 µM | > 100 µM | > 100 µM |  |  |  |
| O=C(Nc1ccc(Cl)cc1)c1cc(S(=O)(=O)Nc2nnc3c(Cl)cc(C(F)(F)F)cn23)c(S)cc1Cl | > 100 µM | > 100 µM | 86.3 µM |  | > 100 µM | > 100 µM | > 100 µM | > 100 µM | > 100 µM | > 100 µM | > 100 µM |  |  |  |
| O=C1c2ccccc2N2Oc3ccccc3C12c1ccccc1 (configuration not stated) | > 100 µM | > 100 µM | > 100 µM |  | > 100 µM | > 100 µM | > 100 µM | > 100 µM |  | > 100 µM | > 100 µM |  |  |  |
| COc1ccc(-c2c(C#N)c(S)n(NS(=O)(=O)c3ccccc3)c(=O)c2C#N)cc1 | > 100 µM | > 100 µM |  | > 100 µM | > 100 µM |  | > 100 µM | > 100 µM | > 100 µM | > 100 µM | > 100 µM |  |  |  |
